Test results published in patent US20250352488A1, “IONIZABLE LIPIDS AND NANOPARTICLES COMPRISING SAME” (MANA BIO LTD., priority 2022, published 2025).

Columns and labels:
[1] = system: cells; assay: cell-penetration of LNPs and intracellular delivery of mRNA; format: cell-based; details: LNPs containing the compound as ionizable lipid; compared to a similar composition comprising Dlin-MC3-DMA
Protocol: The inventors determined cell-penetration of the exemplary LNPs and intracellular delivery of mRNA.
More specifically, particles were incubated on cells for 16-24 hrs at 37° C. under 5% CO2 and expression levels were measured. Formulations were compared to Lipofectamine control and to MC3 control, as well as to untreated controls.

[2] = system: BALB/c mouse; assay: in vivo expression distribution of encapsulated mRNA F-LUC (IVIS imaging, ex-vivo tissue analysis); details: intravenous, 13 μg/mouse
Protocol: (§1) The inventors determined the expression distribution of the exemplary LNPs in vivo by assessing expression of the encapsulated mRNA (mRNA F-LUC). The LNPS of the invention encapsulating mRNA F-LUC have been injected intravenously into a BALB/c mouse, at a dosage of 13 μg/mouse (0.52-0.65 mg/kg). In-vivo imaging were done by IVIS imaging. Ex-vivo tissue analysis was done for lung, heart, spleen, kidney, and liver using IVIS. Histology assessment was determined by H&E staining with pathologist report for toxicity. Histology assessment concluded normal morphology without any treatment related pathological changes.
as §1, with “LNPs” for “LNPS”

[3] = system: lung cells; assay: cell-based studies of specificity to lung cells; details: LNPs containing the compound as ionizable lipid; compared to a similar composition comprising Dlin-MC3-DMA

Row | SMILES | internalization efficiency [1] | lung specificity of the LNP [2] | specificity to the lung cells [3]
1 | CCCCCCCCCOCC(O)CN(CCN(CC(O)COCCCCCCCCC)CC(O)COCCCCCCCCC)CC(O)COCCCCCCCCC (centres unmarked) [MB-77] | superior internalization efficiency |  | 
2 | CCCCCCCCCCCCOCC(O)CN(CCCCCCCCN(CC(O)COCCCCCCCCCCCC)CC(O)COCCCCCCCCCCCC)CC(O)COCCCCCCCCCC (centres unmarked) [MB-205] | superior internalization efficiency |  | 
3 | CCCCCCCCOCC(O)CN(CCCCN(CC(O)COCCCCCCCC)CC(O)COCCCCCCCC)CC(O)COCCCCCCCC (centres unmarked) [MB-208] | superior internalization efficiency |  | 
4 | CCCCCCCCOCC(O)CN(CCOCCOCCN(CC(O)COCCCCCCCC)CC(O)COCCCCCCCC)CC(O)COCCCCCCCC (centres unmarked) [MB-212] | superior internalization efficiency | enhanced lung specificity | enhanced specificity to the lung cells
5 | CCCCCCCCOCC(O)CN(CCCCCCCCN(CC(O)COCCCCCCCC)CC(O)COCCCCCCCC)CC(O)COCCCCCCCC (centres unmarked) [MB-222] |  | enhanced lung specificity | enhanced specificity to the lung cells
